Experimental findings from publication PMC7730205, “Different Sensitivity of Control and MICU1- and MICU2-Ablated Trypanosoma cruzi Mitochondrial Calcium Uniporter Complex to Ruthenium-Based Inhibitors” (International Journal of Molecular Sciences, 2020) are described below.

Structures are written as SMILES.

The test system of the test is T. cruzi epimastigotes (control, TcMICU1-KO, TcMICU2-KO). The experiment in a line: Mitochondrial membrane potential of digitonin-permeabilized epimastigotes (safranine O). It is filed as cell-based, Trypanosoma cruzi. Conditions: TcMICU1-KO or TcMICU2-KO cells, succinate. From the text: To determine whether the defect in mitochondrial Ca^2+ uptake in the presence of inhibitors was not secondary to mitochondrial membrane depolarization, we measured the mitochondrial membrane potential (Δψm) of digitonin-permeabilized epimastigotes using safranine O in the presence of succinate as mitochondrial substrate.
Figure 3 Effect of inhibitors on the mitochondrial membrane potential of epimastigotes. Changes in mitochondrial membrane potential (Δψm) of digitonin-permeabilized epimastigotes as detected by changes in safranine O fluorescence in control (a), TcMICU1-KO (b), and TcMICU2-KO (c) epimastigotes in the absence or presence of inhibitors. Cells (5 × 10^7) were added to the reaction buffer (2 mL) containing 0.2% BSA, 5 mM succinate, 50 μM EGTA and 5 μM safranine O. The reaction was started with 50 μM digitonin (DIG) in the presence or absence of the inhibitor, and 250 μM ADP, 1.5 μM carboxyatractyloside (CAT), 50 μM CaCl2 (Ca^2+), 200 μM EGTA, and 4 μM FCCP were added when indicated. A decrease in fluorescence after permeabilization with digitonin indicated the accumulation of the dye in energized mitochondria. The addition of ADP produced a small dissipation of membrane potential, indicating ADP phosphorylation. Δψm returned to its initial level after the addition of the adenine nucleotide translocator inhibitor CAT. The addition of FCCP collapsed the membrane potential. (d) Changes in safranine O fluorescence after digitonin addition (between 30 and 60 s) in control (C), TcMICU1-KO and TcMICU2-KO epimastigotes. […] Changes in safranine O fluorescence in control (C) (e), TcMICU1-KO (1-KO) (f), and TcMICU2-KO (2-KO) (g) epimastigotes after addition of ADP from three experiments like that shown in panels (a–c).
Estimation of mitochondrial membrane potential in situ was done spectrofluorometrically using the indicator dye safranine O, as described previously. […] Fluorescence changes were monitored using the Hitachi F-7000 spectrofluorometer (excitation of 495 nm and emission of 586 nm).

`N.N.N.N.N.N.N.N.[Cl][Ru+3].[N-]=[Ru][Cl]` [Ru265]: the “Effect on mitochondrial membrane potential (Δψm) and response to ADP” value was “did not significantly affect”.
